From PubChem BioAssay AID434987 (Southern Research Specialized Biocontainment Screening …, 2010)
Active and inactive are the calls of the source. How the calls were made is not given here.

Test system: M. tuberculosis H37Rv growth inhibition with meropenem
Experiment: dose response, H37Rv, with and without meropenem (AID 434987);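 further: growth over 7 days at 37 °C before Alamar Blue read on day 9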
[1] = M. tuberculosis H37Rv growth inhibition, measured here: IC50 without meropenem
[2] = M. tuberculosis H37Rv growth inhibition, measured here: IC90 without meropenem
[3] = measured here: IC90 with meropenem

SMILES | IC50 | IC50 [1] [µM] | IC90 [2] [µM] | IC90 [3] [µM]
CCOC(=O)c1sc(NC(=O)CN2CCCC2)c(C(=O)OCC)c1C | > 100 µM (inactive) | > 100 | > 100 | > 100
CCCCN(CCCC)C(=S)N/N=C/c1c(C)[nH]n(-c2ccccc2)c1=O | > 100 µM (inactive) | > 100 | > 100 | > 100
O=C(c1cc2c(s1)CCCC2)n1cccn1 | 93.4 µM (inactive) | > 100 | > 100 | > 100
CCOC(=O)c1nc(N2CCN(C(=O)OCC)CC2)c2c3c(sc2n1)CCCC3 | 39.5 µM (inactive) | 60.6 | 96.6 | 40.9
O=C1OC(c2ccco2)=N/C1=C\c1ccc(-c2cccc(C(F)(F)F)c2)o1 | 48.9 µM (inactive) | 75.3 | > 100 | 53.4
Cc1c2c(nc3c(C(=O)NC4CCCC4)cnn13)CCCC2 | 73.4 µM (inactive) | > 100 | > 100 | > 100
COc1ccc(NC(=O)c2cc(Br)ccc2Cl)c(OC)c1 | 23.2 µM | > 100 | > 100 | > 100
COc1ccccc1NC(=O)c1cnc(Nc2ccccc2OC)c2ccccc12 | 37.2 µM | > 100 | > 100 | > 100
Cc1ccc(NC(=O)CSc2nnc([C@@H]3CCCN3C(=O)OC(C)(C)C)o2)c(C)c1 | 78.5 µM (inactive) | 86.5 | > 100 | > 100
CCOc1cccc(=O)c2c(C)n(Cc3ccccc3)c(C)c12 | > 100 µM (inactive) | > 100 | > 100 | > 100
O=C(CN1CCC(O)(c2ccc3c(c2)OCO3)CC1)OC1CCCCC1 | 12.8 µM | 38.5 | > 100 | 35.3
CCCCCCC(=O)Nc1nc(C)c(-c2csc(Nc3cc(Cl)ccc3OC)n2)s1 | 42.3 µM (inactive) | 51.1 | > 100 | > 100
O=C(CSc1nc2ncc(Cl)cc2[nH]1)Nc1cccc(F)c1 | > 100 µM (inactive) | > 100 | > 100 | > 100
CCC(C)C(NC(N)=O)C(=O)Nc1ccc(OCc2ccccc2)cc1 (configuration not stated) | > 100 µM (inactive) | > 100 | > 100 | > 100
O=C(Nc1ccc(OC(=O)c2ccccc2)c(-c2nc3ccccc3s2)c1)c1ccccc1 | > 100 µM (inactive) | > 100 | > 100 | > 100
NC(=S)N/N=C/c1cccc(/C=N/NC(N)=S)c1 | 25 µM | > 100 | > 100 | > 100
NC(=O)[C@@H]1CC2(CC(c3cccc(NC(=O)COc4ccc(Cl)cc4)c3)=NO2)CN1C(=O)COc1ccc(Cl)cc1 (some centres not stated) | 75.4 µM (inactive) | > 100 | > 100 | > 100
CCSc1nnc(NC(=O)C2Cc3ccccc3CN2C(=O)c2ccco2)s1 (configuration not stated) | 2.69 µM | > 100 | > 100 | > 100
O=C(Oc1c(-c2ccccc2Cl)oc2ccccc2c1=O)c1ccc(Cl)cc1 | 11 µM | 47.5 | > 100 | > 50
CCOC(=O)Cc1nc2ccccc2[nH]1 | 15.3 µM | 49.6 | > 100 | > 100

SMILES | IC50 | IC50 [1] [µM] | IC90 [2] [µM] | IC90 [3] [µM]
COc1ccc(C[C@H](C)NC[C@@H](O)c2ccc(O)c(NC=O)c2)cc1 | > 100 µM (inactive) | > 100 | > 100 | > 100
CCCn1nc2cc(C(=O)NCCCCc3ccccc3)ccc2c1OCC | 90.1 µM (inactive) | 92.3 | > 100 | > 100
CCN(CC)c1ccc(C=N/C(C#N)=C(\N)C#N)cc1 | 16.9 µM | > 100 | > 100 | > 100
Cc1nn(-c2ccccc2)cc1/C=N/NC(N)=S | 3.7 µM | > 100 | > 100 | > 100
COc1ccc(/C(O)=C/C(=O)C(=O)NNC(=O)C(O)(c2ccccc2)c2ccccc2)cc1 | > 100 µM (inactive) | > 100 | > 100 | > 100
O=C(O)CCN1C(=O)/C(=C/c2ccc(-c3nc4ccccc4s3)o2)SC1=S | 38.3 µM (inactive) | 60.1 | > 100 | 78.4
CCC(C)Nc1c2c(nc3c(-c4ccccc4)c(C)nn13)CCC2 (configuration not stated) | > 100 µM (inactive) | > 100 | > 100 | > 100
COc1ccc(-c2sc3cc(OC)c(OC)cc3c2C#CCCO)cc1 | > 100 µM (inactive) | > 50 | > 50 | > 100
Cc1ccc(S(=O)(=O)NCCCCCC(=O)Nc2nccs2)cc1 | > 100 µM (inactive) | > 100 | > 100 | > 100
Cc1ccc(C2=NN3C(=O)c4ccccc4C3C2)cc1 (configuration not stated) | 11.1 µM | 49 | > 100 | 35.1
c1ccc(CSc2nnc(-c3ccco3)o2)cc1 | > 100 µM (inactive) | > 100 | > 100 | > 100
Cc1ccc(Sc2c(C(=O)Nc3ccc(F)cc3F)c(C(F)(F)F)nn2C)cc1 | > 100 µM (inactive) | > 100 | > 100 | > 100
CC(C)C1CC(CCNCc2ccc(N(C)C)cc2)(c2ccccc2)CCO1 (configuration not stated) | 24.5 µM (inactive) | 29 | 40.7 | 26.9
CCOC(=O)c1c(C)[nH]c(C)c1C(=O)COC(=O)/C=C/c1ccc(OC(F)F)cc1 | 61.1 µM (inactive) | 98.3 | > 100 | 91.4
COc1ccc(NC(=O)CCn2c(=O)c3cccn3c3ccccc32)cc1 | > 100 µM (inactive) | > 100 | > 100 | > 100
CCOC(OCC)c1cn(Cc2ccc3c(c2)C(=O)c2ccccc2C3=O)nn1 | > 100 µM (inactive) | > 100 | > 100 | > 100
C[C@H](NC(=O)c1[nH]cnc1C(=O)Nc1ccc(Cl)cc1)C(=O)OC(C)(C)C | 10.4 µM | > 100 | > 100 | > 100
NNC(=O)c1cccc(O)c1 | 9.97 µM | 79.5 | > 100 | 73.9
COc1ccc(C(=O)Nc2ccc(C(=O)OCC(=O)c3ccccc3)cc2)cc1 | > 100 µM (inactive) | > 100 | > 100 | > 100
CC1CC1C(=O)Nc1nc(-c2cccs2)c(-c2cccs2)s1 (configuration not stated) | 94.3 µM (inactive) | > 100 | > 100 | > 100

SMILES | IC50 | IC50 [1] [µM] | IC90 [2] [µM] | IC90 [3] [µM]
Cc1cc(NC(=O)/C=C/c2ccccc2Cl)n(-c2nc3ccccc3[nH]2)n1 | 1.94 µM | > 100 | > 100 | > 100
Cc1nc(S/C(=C\c2ccc(OCc3ccccc3Cl)cc2)C(=O)O)n[nH]1 | > 100 µM (inactive) | > 100 | > 100 | > 100
NC(=S)N/N=C/c1ccc([N+](=O)[O-])cc1 | 31.7 µM | > 100 | > 100 | > 100
Cc1ccc(C(=O)Nc2c(C)cc(C)c3cccnc23)cc1 | 2.39 µM | 10.3 | > 50 | 10.5
Cc1ccccc1C(=O)NC(=S)Nc1sc2c(c1C#N)CCC(C)C2 (configuration not stated) | > 100 µM (inactive) | > 100 | > 100 | > 100
Cc1cc(C)nc(SCC(=O)Nc2ccccc2[N+](=O)[O-])n1 | 14.4 µM (inactive) | 27.9 | > 100 | > 100
N/C(=N\c1nc2ccccc2o1)NC(=O)c1ccccc1NC(=O)c1ccccc1 | > 100 µM (inactive) | > 100 | > 100 | > 100
CSc1ncccc1C(=O)Nc1nc2ccc(Oc3ccccc3)cc2s1 | > 100 µM (inactive) | > 100 | > 100 | > 100
C=CCn1cc(C(=O)NCCCOC)c(=O)c2cc(S(=O)(=O)N(CC)CC)ccc21 | 99.9 µM (inactive) | > 100 | > 100 | > 100
O=c1oc(-c2ccccc2)nc2sc3c(c12)CCC3 | 32.2 µM | > 100 | > 100 | > 100
Cn1c(=O)c2[nH]c(CNCc3ccccc3Cl)nc2n(C)c1=O | 37.1 µM | > 100 | > 100 | > 100
Cn1cc(C(=O)N/N=C/C(Br)=C\c2ccccc2)ccc1=O | > 100 µM (inactive) | > 100 | > 100 | > 100
COc1cccc(C(=O)C2CCCN(Cc3ccccn3)C2)c1 (configuration not stated) | 1.46 µM | 16.2 | > 100 | 97.5
Cc1cc(C)c2sc(N(CCCN(C)C)C(=O)COc3ccc(Cl)cc3)nc2c1 | 36.6 µM (inactive) | 53.6 | 80.2 | > 100
FC(F)Oc1ccccc1C1CC(c2ccc(Br)s2)Nc2ncnn21 (configuration not stated) | > 100 µM (inactive) | > 100 | > 100 | > 100
COC(=O)CN1C(CN2CCOCC2)=Nc2ccc(Br)cc2C1c1ccccc1 (configuration not stated) | > 100 µM (inactive) | > 100 | > 100 | > 100
O=C(O)CCC/C=C\C[C@@H]1[C@@H](/C=C/[C@@H](O)COc2cccc(Cl)c2)[C@H](O)C[C@@H]1O | > 100 µM (inactive) | > 100 | > 100 | > 100
CSc1nsc(SC)c1NC(=O)OCc1ccccc1 | 32.3 µM | > 100 | > 100 | > 100
